{"source": "patent US20110281852A1", "about": "(priority 2010, published 2011)", "key": {"3T3-L1 cells": {"system": "3T3-L1 cells", "assay": "MTT assay, 3T3-L1 viability during differentiation with clozapine, risperidone, berberine (Example 2)", "format": "cell-based, mouse", "conditions": "day 8", "method": "Cell culture and drug treatment: 3T3-L1 cells (American Type Culture Collection, Manassas, Va., USA) were cultured at 37° C. in a humidified 5% CO2 atmosphere and grown in a DMEM (Sigma-Aldrich, St. Louis, Mo. USA) supplemented with 10% Fetal Bovine Serum (FBS, Atlanta Biologicals Corp., Lawrenceville, Ga., USA), 100 units/ml penicillin and 100 μg/ml streptomycin. Differentiation was induced by addition of 167 nM insulin, 520 μM isobutylmethylxanthine (IBMX), and 1 μM dexamethasone for 2 days and then only with 167 nM insulin for 6 days. Detailed protocol was described as our previous report (Hu et al., Phytomedicine (2009) 16(9):864-873).\nMedium was removed after differentiation and treatment for 8 days, MTT (Methylthiazolyldiphenyl—tetrazolium bromide 0.5 mg/ml, 50 μl/well) was added."}, "PPARγ": {"system": "PPARγ", "assay": "Real-time RT-PCR, PPARγ mRNA in 3T3-L1", "format": "cell-based, mouse", "conditions": "8 days", "description": "(§1) Realtime RT-PCR: Real-time reverse transcriptase polymerase chain reaction (RT-PCR) analysis was used to measure mRNA expression of genes SREBP-1, PPARγ, C/EBPα, low density lipoprotein receptor (LDLR), Adiponectin, and fatty acid synthase (FAS) under the control of β-actin. Briefly, total RNA was isolated from 3T3-L1 cells following treatment for 8 days with Trizol reagent (Invitrogen, Carlsbad, Calif., USA) according to the manufacturer's instruction. RNA was quantified using absorption of light at 260 nm, and sample purity was checked by OD 260 nm/280 nm. 0.8 μg of total RNA from each sample was used for reverse transcription reaction using the TaqMan Reverse Transcription Reagents (Applied Biosystems, Foster City, Calif., USA) according to the manufacturers' instructions. PCR was done using the SYBR green Master Mix (Applied Biosystems, Foster City, Calif., USA) according to the manufacturers' instructions. The temperature cycling conditions of amplification were as follows: an initial step of denaturation at 95° C. for 10 min, 40 cycles of denaturation at 95° C. for 30 s, annealing at 55° C. for 30 s, and elongation at 72° C. for 30 s. Realtime RT-PCR was performed using Mx3000P Realtime Thermocyclers (Statagene, La Jolla, Calif., USA). The relative mRNA levels of these genes were calculated by 2-delta delta CT method and normalized with control groups."}, "C/EBPα [1]": {"system": "C/EBPα", "assay": "Real-time RT-PCR, C/EBPα mRNA in 3T3-L1", "format": "cell-based, mouse", "conditions": "8 days", "description": "as §1"}, "[2]": {"system": "fatty acid synthase (FAS)", "assay": "Real-time RT-PCR, FAS mRNA in 3T3-L1", "format": "cell-based, mouse", "conditions": "8 μM berberine + 50 μM risperidone, 8 days", "description": "as §1"}, "C/EBPα [3]": {"system": "C/EBPα", "assay": "Immunoblotting, C/EBPα protein in 3T3-L1", "format": "cell-based, mouse", "conditions": "8 days", "method": "Immunoblotting: Protein expression of SREBP-1, PPARγ, and C/EBPα relative to […] was assessed by Western Blot. Total proteins were isolated from 3T3-L1 cells treated with compounds or vehicles for 8 days. The cells were washed twice with PBS, lysed in a HEPES-Tx-PI buffer ([…], 5 mM EDTA, 350 mM Sucrose, 1 μg/ml leupeptin, 1 μg/ml pepstatin, 1% Triton-X, 1 mM PMSF), processed with 25G needles and centrifuged at 12,000 rpm for 5 min. Protein concentration was determined using the Micro BCA Protein Assay Kit (Fisher Scientific, Pittsburgh, Pa., USA) following the manufacturers instructions. 25 μg proteins were loaded and separated by electrophoresis using the BioRad Electrophoretic System (65 V for 7 hour). The proteins were then transferred to nitrocellulose membranes at 40 V overnight. The membrane was blocked for 1 hour at room temperature in 5% nonfat milk in Tris-buffered saline (TBS), then washed with Tween-20-TBS (TTBS, 0.1% Tween-20) three times (15 min, 5 min, 5 min), followed by incubation with primary antibodies SREBP-1 (dilution 1:200), PPARγ (dilution 1:200), C/EBPα (dilution 1:200) (all purchased from Santa Cruz Biotechnology, Santa Cruz, Calif., USA) and […] (dilution 1:1000, Sigma-Aldrich, St. Louis, Mo., USA) at room temperature for 2 hours. […]"}, "GATA-2": {"system": "GATA-2", "assay": "Real-Time RT-PCR, GATA-2 mRNA in epididymal fat of FD mice", "format": "in vivo, mouse", "method": "RNA and protein purification and quantification from epididymal fat tissues: RNA and protein was isolated from 60 mg of epididymal fat tissues with Trizol (Invitrogen, Carlsbad, Calif., USA) following the protocol recommended by the manufacturers. RNA was dissolved in pure water and quantified at 260/280 nm, and sample integrity was checked by 1.5% agarose gel electrophoresis. Protein concentration was determined using the Micro BCA Protein Assay Kit (Fisher Scientific, Pittsburgh, Pa., USA) according to the manufacturer's instructions.\nQuantitative Real-Time RT-PCR: Real-Time reverse transcriptase polymerase chain reaction (RT-PCR) analysis was used to measure mRNA expression of genes PPARγ, C/EBPα, GATA-2 and GATA-3 in the control of β-actin. Total RNA (0.8 μg) from each sample was used for a reverse transcription reaction using the TaqMan Reverse Transcription Reagents (Applied Biosystems, Foster City, Calif., USA) following the manufacturer's instructions. PCR was done using the SYBR green Master Mix (Applied Biosystems, Foster City, Calif., USA) following the manufacturer's instructions. The cycling conditions of amplification were as follows: an initial step of denaturation at 95° C. for 10 min, 40 cycles of denaturation at 95° C. for 30 s, annealing at 55° C. for 30 s, and elongation at 72° C. for 30 s. Real-Time PCR was performed using Mx3000P Real-Time Thermocyclers (Stratagene, La Jolla, Calif., USA). The relative mRNA levels of these genes were calculated by 2-delta delta CT method and normalized with control-treated groups."}, "[4]": {"conditions": "8 μM berberine + 15 μM clozapine"}, "[5]": {"conditions": "8 μM berberine + 50 μM risperidone"}}}
{"compound": "COc1ccc2cc3[n+](cc2c1OC)CCc1cc2c(cc1-3)OCO2.[Cl-]", "note": "[berberine, Berberine (Chloride Form)]", "values": [{"measurement": "decrease of cell viability vs no berberine treated group", "setting": "3T3-L1 cells; 8 μM berberine combined with 0 μM clozapine", "value": 22.3, "unit": "%"}, {"measurement": "decrease of cell viability vs no berberine treated group", "setting": "3T3-L1 cells; 8 μM berberine combined with 0 μM risperidone", "value": 17.8, "unit": "%"}, {"measurement": "decrease of cell viability vs no berberine treated group", "setting": "3T3-L1 cells; 8 μM berberine combined with 15 μM clozapine", "value": 16.5, "unit": "%"}, {"measurement": "decrease of cell viability vs no berberine treated group", "setting": "3T3-L1 cells; 8 μM berberine combined with 25 μM risperidone", "value": 19.5, "unit": "%"}, {"measurement": "decrease of cell viability vs no berberine treated group", "setting": "3T3-L1 cells; 8 μM berberine combined with 30 μM clozapine", "value": 15, "unit": "%"}, {"measurement": "decrease of cell viability vs no berberine treated group", "setting": "3T3-L1 cells; 8 μM berberine combined with 50 μM risperidone", "value": 20.2, "unit": "%"}, {"measurement": "decrease of PPARγ mRNA expression vs clozapine treated group", "setting": "PPARγ; [4]", "value": 87.7, "unit": "%"}, {"measurement": "decrease of PPARγ mRNA expression vs risperidone treated group", "setting": "PPARγ; [5]", "value": 93.1, "unit": "%"}, {"measurement": "decrease of C/EBPα mRNA expression vs clozapine treated group", "setting": "C/EBPα [1]; [4]", "value": 94.7, "unit": "%"}, {"measurement": "decrease of C/EBPα mRNA expression vs risperidone treated group", "setting": "C/EBPα [1]; [5]", "value": 96.4, "unit": "%"}, {"measurement": "decrease of FAS mRNA expression vs risperidone treated group", "setting": "[2]", "value": 85.5, "unit": "%"}, {"measurement": "decrease of C/EBPα protein expression vs clozapine treated group", "setting": "C/EBPα [3]; [4]", "value": 73, "unit": "%"}, {"measurement": "decrease of C/EBPα protein expression vs risperidone treated group", "setting": "C/EBPα [3]; [5]", "value": 68, "unit": "%"}, {"measurement": "GATA-2 mRNA expression increased to", "setting": "GATA-2; 0.75 mg/kg/day", "value": 2.7, "unit": "fold"}, {"measurement": "GATA-2 mRNA expression increased to", "setting": "GATA-2; 1.5 mg/kg/day", "value": 3.4, "unit": "fold"}, {"measurement": "GATA-2 mRNA expression increased to", "setting": "GATA-2; 3 mg/kg/day", "value": 3.7, "unit": "fold"}]}
